Measured values: US8569292B2, “Cyclic inhibitors of 11β-hydroxysteroid dehydrogenase 1” (Vitae Pharmaceuticals, Inc., priority 2008, dated 2013)
Where two headings read alike, the source gives them in different places.

Tests used:
11β-HSD1 [1] = target: T1, 11β-HSD1 (Homo sapiens, UniProt P28845)
CYP2C9 [2] = target: T2, CYP2C9 (Homo sapiens, UniProt P11712); assay: Biological Test Example 7: CYP2C9 inhibition (naproxen O-demethylation); type: in vitro ADME
T2 construct: purchased Invitrogen 2859; host or cells: insect cells infected with baculovirus (microsomes)

CYP2C19 = CYP2C19 (Homo sapiens, UniProt P33261); assay: Biological Test Example 8: CYP2C19 inhibition (diazepam N-demethylation); type: in vitro ADME
11β-HSD1 [3] = target: T1, 11β-HSD1; assay: biochemical
CYP2C9 [4] = target: T2, CYP2C9; assay: Biological Test Example 9: CYP2C9 inhibition (Invitrogen kit, fluorogenic OOMR); type: in vitro ADME
CYP3A4 = CYP3A4 (Homo sapiens, UniProt P08684); assay: Biological Test Example 6: CYP3A4 inhibition (erythromycin N-demethylation); type: in vitro ADME
[5] = Biological Test Example 5: fraction unbound in human plasma (equilibrium dialysis); type: in vitro ADME
Experimental: Plasma protein binding of compounds was determined with Equilibrium Dialysis of spiked plasma against compound free dextrane buffer using a dialysis membrane with mass cutoff of 5000 Da. Compound concentrations in plasma and buffer after incubation were measured using HPLC/Mass spectrometry.

11β-HSD1 [6] = target: T1, 11β-HSD1; assay: Biological Test Example 4: microsomal 11β-HSD1 in the presence of 50% human plasma

T1 sequence (P28845 whole entry): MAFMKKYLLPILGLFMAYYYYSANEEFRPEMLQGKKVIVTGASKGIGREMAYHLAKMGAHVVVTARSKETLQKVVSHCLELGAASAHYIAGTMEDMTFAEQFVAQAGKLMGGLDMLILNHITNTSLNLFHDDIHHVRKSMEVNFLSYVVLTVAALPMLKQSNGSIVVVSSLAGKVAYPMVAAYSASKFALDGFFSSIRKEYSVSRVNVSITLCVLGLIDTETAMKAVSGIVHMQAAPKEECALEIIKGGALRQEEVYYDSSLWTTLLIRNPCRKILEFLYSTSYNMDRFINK
T2 sequence (P11712 whole entry): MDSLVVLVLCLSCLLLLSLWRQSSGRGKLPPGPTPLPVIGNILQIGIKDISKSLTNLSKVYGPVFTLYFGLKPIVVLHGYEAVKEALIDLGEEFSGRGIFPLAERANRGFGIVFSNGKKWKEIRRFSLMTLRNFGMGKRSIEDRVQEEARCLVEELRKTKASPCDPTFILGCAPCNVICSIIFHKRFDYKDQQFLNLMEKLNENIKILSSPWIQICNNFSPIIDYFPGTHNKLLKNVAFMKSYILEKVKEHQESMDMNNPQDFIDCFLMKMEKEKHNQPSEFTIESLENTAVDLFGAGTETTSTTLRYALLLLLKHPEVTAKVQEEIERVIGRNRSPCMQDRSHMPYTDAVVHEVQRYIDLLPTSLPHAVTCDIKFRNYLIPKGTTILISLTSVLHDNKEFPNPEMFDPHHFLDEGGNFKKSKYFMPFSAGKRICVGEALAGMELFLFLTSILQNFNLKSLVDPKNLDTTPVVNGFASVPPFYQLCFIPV
Sequence of CYP3A4 (P08684 whole entry): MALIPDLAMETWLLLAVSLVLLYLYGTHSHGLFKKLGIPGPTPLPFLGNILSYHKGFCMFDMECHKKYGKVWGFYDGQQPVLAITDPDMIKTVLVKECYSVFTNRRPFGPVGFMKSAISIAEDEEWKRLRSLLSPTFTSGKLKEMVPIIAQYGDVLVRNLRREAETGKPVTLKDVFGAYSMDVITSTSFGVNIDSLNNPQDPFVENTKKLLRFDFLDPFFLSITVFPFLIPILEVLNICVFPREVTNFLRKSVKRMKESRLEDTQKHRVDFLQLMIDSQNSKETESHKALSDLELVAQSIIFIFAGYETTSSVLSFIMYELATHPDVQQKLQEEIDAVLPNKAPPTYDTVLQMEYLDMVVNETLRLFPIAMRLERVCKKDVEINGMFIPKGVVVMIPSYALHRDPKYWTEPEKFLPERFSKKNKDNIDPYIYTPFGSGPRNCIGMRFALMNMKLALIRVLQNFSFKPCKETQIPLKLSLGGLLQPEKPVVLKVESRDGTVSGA
Sequence of CYP2C19 (P33261 whole entry): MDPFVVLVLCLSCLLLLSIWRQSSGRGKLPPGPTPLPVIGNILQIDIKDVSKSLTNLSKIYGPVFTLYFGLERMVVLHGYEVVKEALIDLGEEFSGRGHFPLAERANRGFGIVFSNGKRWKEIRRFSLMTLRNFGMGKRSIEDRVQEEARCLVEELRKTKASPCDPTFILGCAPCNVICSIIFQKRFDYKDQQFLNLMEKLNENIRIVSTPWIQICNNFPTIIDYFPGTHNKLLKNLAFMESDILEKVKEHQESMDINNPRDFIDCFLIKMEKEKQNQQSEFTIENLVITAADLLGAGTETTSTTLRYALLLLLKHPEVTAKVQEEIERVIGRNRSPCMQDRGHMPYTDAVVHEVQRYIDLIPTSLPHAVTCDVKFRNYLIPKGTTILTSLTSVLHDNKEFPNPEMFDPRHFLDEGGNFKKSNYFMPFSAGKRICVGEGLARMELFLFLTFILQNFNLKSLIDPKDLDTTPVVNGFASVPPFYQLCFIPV

Row | Average % inhibition at 100 nM (11β-HSD1 [1]; 100 nM) [%] | IC50 (11β-HSD1 [1]; read-out: Biological Test Example 1 IC50) [nM] | IC50 (11β-HSD1 [1]; read-out: IC50 Range, Biological Test Example 1) [nM] | IC50 (CYP2C9 [2]) [nM] | IC50 (CYP2C19) [nM] | IC50 (11β-HSD1 [3]; Biological Test Example 1 IC50 (nM)) [nM] | IC50 (11β-HSD1 [3]; IC50 Range, Biological Test Example 1) [nM] | inhibition at 0.1 µM (11β-HSD1 [3]; read-out: Average % inhibition at 100 nM) [%] | IC50 (CYP2C9 [4]) [nM] | IC50 (CYP3A4) [nM] | Biological Test Example 5 (%) [5] [%] | IC50 (11β-HSD1 [6]) [nM] | Structure (SMILES)
1 | 86.3 | 19.2 | < 100 | – | – | – | – | – | – | – | – | – | Cc1cc(-c2ccc([C@H](C)N3CCC(CCN4CCCS4(=O)=O)(c4ccccc4)OC3=O)cc2)ccn1 (stereo in doubt) [EXAMPLE 118, (R)-3-((S)-1-(4-(2-methylpyridin-4-yl)phenyl)ethyl)-6-phenyl-6-(2-(1,1-dioxoisothiazolidin-2-yl)ethyl)-1,3-oxazinan-2-one]
2 | – | – | – | > 50000 | 3000 | 2.5 | < 100 | 97.9 | 9700 | 11800 | 1.9 | 21.6 | C[C@@H](c1ccc(-c2cnccn2)cc1)N1CC[C@](CC(C)(C)O)(c2ccccc2)OC1=O [EXAMPLE 130, (S)-6-(2-hydroxy-2-methylpropyl)-6-phenyl-3-((S)-1-(4-(pyrazin-2-yl)phenyl)ethyl)-1,3-oxazinan-2-one]
